Earlier results in patent US20070248696A1, “Composition and method for enhancing neuromuscular facilitation and cognitive functions” (priority 2006, published 2007).

Tests used:
[1] = in vivo
[2] = relative to vitamin E
[3] = relative to vitamin E; remark: listed apart in the source

Row | Structure (SMILES) | motor performance and coordination in the rotorod and open field tests [1] | more powerful than vitamin E in neutralizing pro-oxidants and free radicals that attack lipids [2] | more potent than vitamin E in reducing oxidation [3]
1 | C[N+](C)(C)CCOP(=O)(O)OP(=O)([O-])OC[C@H]1O[C@@H](n2ccc(N)nc2=O)[C@H](O)[C@@H]1O [CDP-choline, cytidine 5′-diphosphocholine] | improves motor performance and coordination |  | 
2 | O=C(O[C@@H]1Cc2c(O)cc(O)cc2O[C@@H]1c1cc(O)c(O)c(O)c1)c1cc(O)c(O)c(O)c1 [EGCG, (−)-epigallocatechin-3-gallate] |  | over 200 times | 20 times
